Data on four molecules can be found in publication PMC5242521 (PLoS ONE, 2017).

Molecules are shown by their SMILES. Several values for one entry are separate records, joined by “and”; a condition that tells them apart may be missing. Identical values can stand only once. Entries after “also recorded” stand apart in the source; their conditions may differ. Bounds are passed on as bounds.

For data set [1], the system named is BCRP ATPase activity. The settings on record: ref [28]; cited from earlier work.
Details of data set [2]: method as in PMID 12708229. To be noted: human subjects environmentally exposed; ref [70]; cited from earlier work.
Data set [3] addresses T1, BCRP (Homo sapiens, UniProt Q9UNQ0).
T1 construct: expressed in transfected cells; host or cells: HEK293
T1 sequence (Q9UNQ0 1-655): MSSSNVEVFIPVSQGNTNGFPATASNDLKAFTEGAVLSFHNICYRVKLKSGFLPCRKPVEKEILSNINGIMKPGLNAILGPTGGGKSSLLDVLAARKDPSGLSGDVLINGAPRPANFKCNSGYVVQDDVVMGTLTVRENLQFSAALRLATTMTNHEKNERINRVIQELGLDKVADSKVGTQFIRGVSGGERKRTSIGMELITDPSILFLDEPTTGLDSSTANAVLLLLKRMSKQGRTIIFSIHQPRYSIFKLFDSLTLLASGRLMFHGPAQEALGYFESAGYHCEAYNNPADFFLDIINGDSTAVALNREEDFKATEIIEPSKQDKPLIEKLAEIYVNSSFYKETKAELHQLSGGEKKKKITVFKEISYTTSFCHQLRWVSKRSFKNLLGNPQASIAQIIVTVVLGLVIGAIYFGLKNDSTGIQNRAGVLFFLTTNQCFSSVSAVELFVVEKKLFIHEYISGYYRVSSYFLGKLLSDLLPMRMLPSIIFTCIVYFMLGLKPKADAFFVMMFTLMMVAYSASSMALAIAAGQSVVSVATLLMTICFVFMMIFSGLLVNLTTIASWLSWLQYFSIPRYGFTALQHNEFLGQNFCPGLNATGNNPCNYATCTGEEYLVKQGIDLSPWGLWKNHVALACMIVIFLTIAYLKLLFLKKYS
The data set can be described thus: BCRP activity: Hoechst 33342 retention in HEK-BCRP cells. To be noted: pyrethroid 100 μM. It is filed as cell-based. The protocol:
For retention assay (used for BCRP activity), HEK-BCRP cells cultured in 48-well plates were first loaded at 37°C with transport assay (200 μL/well) containing 16.2 μM Hoechst 33342 for 30 min. After washing twice in PBS (200 μL/well/washing), cells were reincubated in Hoechst 33342-free transport assay medium (200 μL/well) at 37°C for 90 min in the absence or presence of pyrethroids or of the BCRP reference inhibitor fumitremorgin C used at 10 μM. Cells were next lysed in distilled water (155 μL/well) after washing twice in PBS (200 μL/well/washing). The cell lysate was finally used for determining cellular protein content and intracellular retention of Hoechst 33342 (by spectrofluorimetry: excitation and emission wavelengths were 355 and 460 nm, respectively), as described above.
(§1) The initial tested concentration of pyrethroids was 100 μM.

The target in data set [4] is P-gp (Homo sapiens, UniProt P08183). The data set can be described thus: P-gp activity: rhodamine 123 accumulation in MCF7R cells. The settings on record: pyrethroid 100 μM. The protocol: (§2) The effects of pyrethroids on activity of ABC and SLC transporters were determined through measuring cellular accumulation or retention of fluorescent or radiolabeled reference substrates for transporters, in the presence or absence of reference inhibitors, as previously described. The nature of cells and reference substrates and inhibitors used for transport assays are summarized in S3 Table.
For accumulation assays (performed for all transporters, excepted BCRP), transporter-expressing cells usually cultured in 48-well plates were first incubated at 37°C with reference substrates in the absence (control) or presence of pyrethroids or reference inhibitors, in a well-defined transport assay medium, consisting of 136 mM NaCl, 5.3 mM KCl, 1.1mM KH2PO4, 0.8 mM MgSO4, 1.8 mM CaCl2, 10 mM HEPES, 11 mM D-glucose and adjusted to pH = 7.4 (excepted for MATE transporter assays, for which pH was set to 8.4). The nature of substrates and reference inhibitors and the incubation times with substrates, that varied according to the transporter, were selected in agreement with previous studies and are indicated in S3 Table. The total incubation volume with substrates was 200 μL/well. After washing twice in phosphate-buffered saline (PBS) (200 μL/well/washing), cells were lysed in distilled water (155 μL/well). An aliquot of cell lysate (5 μL) was then taken for determining cellular protein content by the Bradford method. The rest of lysate (150 μL/well) was used for measuring intracellular accumulation of reference substrates by scintillation counting or spectrofluorimetry using a SpectraMax Gemini SX spectrofluorometer (Molecular Devices, Sunnyvale, CA, USA) (excitation and emission wavelengths were 485 and 535 nm, respectively, for rhodamine 123 and fluorescein, and 355 and 460 nm, respectively, for DAPI).
(§3) Intracellular concentrations of reference substrates were initially expressed as fluorescence arbitrary units (for fluorescent dye substrates) or as moles (for radiolabeled substrates) and normalized to cellular protein content, determined by the Bradford method. They were finally used for calculating percentage of transporter activity, according to the following equations [41, 45]: %ABCtransporter activity=([Substrateref inh]-[Substratepyrethroid])×100/([Substrateref inh]-[Substratecontrol]) (1) %SLC transporter activity=([Substratepyrethroid]-[Substratref inh])×100/([Substratecontrol]-[Substrateref inh]) (2) with [Substratepyrethroid] = cellular concentration of reference substrate in the presence of pyrethroid, [Substrateref inh] = cellular concentration of reference substrate in the presence of reference inhibitor and [Substratecontrol] = cellular concentration of reference substrate in control cells not exposed to pyrethroid or reference inhibitor.
(§4) The initial tested concentration of pyrethroids was 100 μM. […] Such concentrations were calculated using GraphPad Prism software (GraphPad Software, La Jolla, CA), through nonlinear regression based on the four parameter logistic function using the following equations: […]

Data set [5] concerns P-gp. The settings on record: ref [26], [27]; cited from earlier work.
Data set [6] deals with T2, OCT1 (Homo sapiens, UniProt O15245).
T2 sequence (O15245 1-554): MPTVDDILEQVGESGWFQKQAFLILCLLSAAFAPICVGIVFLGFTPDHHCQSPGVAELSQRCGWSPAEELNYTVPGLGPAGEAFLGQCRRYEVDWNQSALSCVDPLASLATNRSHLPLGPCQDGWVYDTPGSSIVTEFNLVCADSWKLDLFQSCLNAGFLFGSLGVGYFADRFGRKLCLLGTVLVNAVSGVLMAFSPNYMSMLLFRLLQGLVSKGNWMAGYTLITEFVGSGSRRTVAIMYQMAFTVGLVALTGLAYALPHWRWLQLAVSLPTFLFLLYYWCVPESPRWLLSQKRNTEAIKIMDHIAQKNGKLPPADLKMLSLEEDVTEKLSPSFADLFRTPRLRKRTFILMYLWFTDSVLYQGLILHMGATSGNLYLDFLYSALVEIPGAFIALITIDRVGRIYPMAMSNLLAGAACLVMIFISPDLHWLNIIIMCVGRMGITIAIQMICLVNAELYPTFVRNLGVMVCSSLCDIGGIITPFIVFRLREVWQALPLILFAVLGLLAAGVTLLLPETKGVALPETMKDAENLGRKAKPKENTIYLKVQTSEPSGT
As to the kind of experiment: OCT1 activity: DAPI accumulation in HEK-OCT1 cells. To be noted: for inhibition at 100 μM: human, pH 7.4. The procedure:
as §2
The nature of substrates and reference inhibitors and the incubation times with substrates, that varied according to the transporter, were selected in agreement with previous studies and are indicated in S3 Table. The total incubation volume with substrates was 200 μL/well. […] An aliquot of cell lysate (5 μL) was then taken for determining cellular protein content by the Bradford method.
as §3, §4

The test system of data set [7] is P-gp. To be noted: ref [78]; cited from earlier work.
For data set [8], the target named is T3, OATP1B1 (Homo sapiens, UniProt Q9Y6L6).
T3 construct: expressed in transfected cells; host or cells: CHO
T3 sequence (Q9Y6L6 1-691): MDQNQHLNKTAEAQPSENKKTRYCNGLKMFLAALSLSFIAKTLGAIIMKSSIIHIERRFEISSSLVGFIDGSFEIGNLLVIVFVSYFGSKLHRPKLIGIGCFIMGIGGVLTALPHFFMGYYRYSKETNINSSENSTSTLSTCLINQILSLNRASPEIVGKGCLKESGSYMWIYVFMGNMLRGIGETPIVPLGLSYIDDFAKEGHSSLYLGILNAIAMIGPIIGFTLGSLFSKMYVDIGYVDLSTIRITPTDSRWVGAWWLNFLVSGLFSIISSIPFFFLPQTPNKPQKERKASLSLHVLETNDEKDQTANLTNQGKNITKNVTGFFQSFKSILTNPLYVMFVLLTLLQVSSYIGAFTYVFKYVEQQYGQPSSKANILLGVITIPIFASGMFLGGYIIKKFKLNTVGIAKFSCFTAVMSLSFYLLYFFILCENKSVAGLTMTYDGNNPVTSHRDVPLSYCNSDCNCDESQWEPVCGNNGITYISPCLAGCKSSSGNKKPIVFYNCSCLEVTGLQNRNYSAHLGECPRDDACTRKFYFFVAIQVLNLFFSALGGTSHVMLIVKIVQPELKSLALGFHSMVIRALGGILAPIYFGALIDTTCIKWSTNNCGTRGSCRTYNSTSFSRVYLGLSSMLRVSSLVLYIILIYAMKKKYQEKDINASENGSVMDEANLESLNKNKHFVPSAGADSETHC
As to the kind of experiment: OATP1B1 activity: E3S accumulation in CHO-OATP1B1 cells. The class given is cell-based. The settings on record: pyrethroid 100 μM; CHO-OATP1B1 cells, E3S. The protocol:
as §1

Chain of P-gp (Homo sapiens, UniProt P08183) (P08183 whole entry): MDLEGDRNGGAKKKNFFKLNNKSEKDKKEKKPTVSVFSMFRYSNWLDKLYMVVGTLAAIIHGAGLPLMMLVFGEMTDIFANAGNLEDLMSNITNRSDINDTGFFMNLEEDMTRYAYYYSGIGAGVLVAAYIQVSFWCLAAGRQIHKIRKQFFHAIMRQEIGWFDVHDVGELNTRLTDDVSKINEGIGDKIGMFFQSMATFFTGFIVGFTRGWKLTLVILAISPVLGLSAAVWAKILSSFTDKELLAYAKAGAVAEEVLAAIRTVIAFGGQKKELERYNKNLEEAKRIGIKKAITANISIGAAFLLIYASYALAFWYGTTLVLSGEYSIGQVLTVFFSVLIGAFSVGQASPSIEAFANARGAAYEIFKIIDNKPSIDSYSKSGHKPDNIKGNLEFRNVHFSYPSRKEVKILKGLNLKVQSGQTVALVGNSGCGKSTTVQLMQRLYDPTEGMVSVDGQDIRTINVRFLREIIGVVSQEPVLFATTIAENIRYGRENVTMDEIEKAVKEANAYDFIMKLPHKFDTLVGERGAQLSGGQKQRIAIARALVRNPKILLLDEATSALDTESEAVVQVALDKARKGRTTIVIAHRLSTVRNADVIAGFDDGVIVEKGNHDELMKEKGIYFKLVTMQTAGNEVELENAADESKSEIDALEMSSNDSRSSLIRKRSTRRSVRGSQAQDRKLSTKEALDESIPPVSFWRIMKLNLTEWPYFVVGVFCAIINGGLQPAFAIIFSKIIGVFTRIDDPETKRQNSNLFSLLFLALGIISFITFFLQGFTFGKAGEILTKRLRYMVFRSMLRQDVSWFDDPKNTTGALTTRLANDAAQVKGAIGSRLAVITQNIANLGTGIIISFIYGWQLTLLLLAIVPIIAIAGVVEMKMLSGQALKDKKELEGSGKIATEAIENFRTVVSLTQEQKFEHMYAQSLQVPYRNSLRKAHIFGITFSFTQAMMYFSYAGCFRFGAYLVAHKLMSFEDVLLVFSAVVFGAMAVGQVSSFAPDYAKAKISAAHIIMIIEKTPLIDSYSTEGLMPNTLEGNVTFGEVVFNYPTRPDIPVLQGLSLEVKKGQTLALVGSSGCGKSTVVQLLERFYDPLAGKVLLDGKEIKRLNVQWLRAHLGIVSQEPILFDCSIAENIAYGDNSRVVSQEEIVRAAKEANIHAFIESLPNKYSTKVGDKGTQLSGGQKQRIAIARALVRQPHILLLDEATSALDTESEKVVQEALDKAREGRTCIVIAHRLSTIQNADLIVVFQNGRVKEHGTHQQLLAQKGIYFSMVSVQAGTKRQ

Turning to `CC1(C)C(C=C(Cl)Cl)C1C(=O)OCc1cccc(Oc2ccccc2)c1` (stereo not shown) [permethrin], the “effect on BCRP ATPase activity” value in data set [1] is “blocked; also recorded: inhibited”. Also, in data set [2], the blood concentration was < 5 μg/L and < 12.8 nM. Moreover, the “effect on BCRP activity” value in data set [3] is “without inhibiting”. Further, in data set [4], the “effect on P-gp activity” value was “did not alter”. Further, the “effect on P-gp activity or ATPase activity” value in data set [5] is recorded as “inhibit”.
Regarding `CC1(C)[C@H](C(=O)O[C@H](C#N)c2cccc(Oc3ccccc3)c2)[C@@H]1C=C(Br)Br` [deltamethrin], in data set [6], the inhibition at 100 μM fell in the range of 30.1 to 48.8%. In data set [7], the “efflux by P-gp” value is “not effluxed by P-gp”. In addition, the blood concentration in data set [2] was < 5 μg/L and < 12.8 nM. Moreover, the “effect on P-gp activity” value in data set [4] was “did not inhibit”.
Take `CC(C)[C@H](C(=O)O[C@H](C#N)c1cccc(Oc2ccccc2)c1)c1ccc(Cl)cc1` [esfenvalerate]: the “inhibition of OATP1B1 activity” value in data set [8] is given as “less than 50%”. Further, in data set [6] (pyrethroid 100 μM, DAPI), the “effect on OCT1 activity” value was “failed to significantly alter”. In data set [4], the “effect on P-gp activity” value is listed as “did not alter”. In data set [5], the “effect on P-gp activity or ATPase activity” value was “inhibit”.
On to `CC(C)=CC1C(C(=O)OCc2coc(Cc3ccccc3)c2)C1(C)C` (stereo not shown) [resmethrin], for which, in data set [6], the inhibition at 100 μM amounted to 48.8%. Moreover, the “effect on BCRP ATPase activity” value in data set [1] is “inhibited”. Moreover, the “effect on BCRP activity” value in data set [3] was “without inhibiting”.
